Source: US5432172A, “Biological applications of alkaloids derived from the tunicate Eudistoma sp” (The Research Foundation of State University of New York, priority 1993, dated 1995)
“Also recorded” adds a separate entry of the source. Like-named read-outs stand apart in the source and are kept apart here.

Assays:
[1] = system: NIL8-HSV cells
Experimental: A-D Cells grown for 6 days in the absence of drugs (A), or in the presence of 75 μM forskolin (B), 13 μM Segoline B (C) or 0.21 μM Eilatin (D). E and F show the appearance of the Segoline B- and Eilatin-treated cells, 7 days after removal of the toxins.
A: F-actin staining in control cells. B: F-actin staining in a cell treated for 4 days with 13 μM Segoline B.
Cells were grown for 6 days in the absence of drugs (A), or in the presence of 10 μM 4-methylpyrido[2,3,4-kl]acridine (B), 4 μM pyrido[2,3,4-kl]acridine (C), 0.08 μM eilatin (D), or 75 μM forskolin (E).
As reviewed by Willingham, Int. Rev. […] Transformed fibroblasts which display altered growth patterns and aberrant morphologies respond to cAMP elevation by restoration of many normal aspects of growth and morphology, a phenomenon known as "cAMP-mediated reverse transformation" as described by Lockwood et al., J. Cell. Biochem., 33, 237-255 (1987).
A-D show cells grown for 6 days in the absence of drugs (A), or in the presence of 75 μM forskolin (B), 13 μM Segoline B (C) or 0.21 μM Eilatin (D). E and F show the appearance of the Segoline B- and Eilatin-treated cells, 7 days after removal of the toxins.
A: F-actin staining in control cells.

[2] = system: normal hamster fibroblast NIL8 cell line; assay: Growth and morphology of normal NIL8 fibroblast cells; format: cell-based
Experimental: Cells were grown for 5 days in the absence of drugs (A), and in the presence of 25 μM forskolin (B), 1.4 μM Eilatin (C), or 12.8 μM Debromoshermilamine (D). […]
As illustrated, a single application of 1.4 μM Eilatin or 12.8 μM Debromoshermilamine to NIL8 cells produced effects which are strikingly similar to those obtained by chronically treating time cells with agents that elevate or mimic cAMP. […] This predilection towards cancer cells is a very desirable property in developing potential drugs for the treatment of cancer.

[3] = system: neuroblastoma N1E-115 cells; assay: Growth and morphological differentiation of mouse neuroblastoma N1E-115 cells; details: for effect on cell division and morphological differentiation: 3 days; for effect on cell division and morphological differentiation / long-term effect on cell division / effects on cell growth and differentiation: single application; for long-term effect on cell division: 6 days; for range of effective concentrations that inhibited cell proliferation and induced morphological differentiation / effects on cell appearance: N1E-115 cells; for range of effective concentrations that inhibited cell proliferation and induced morphological differentiation: below range no noticeable effect, above range cytotoxic; for effects on cell appearance: morphology; for most effective concentration for the cells tested: summary, cells tested in the present invention
Experimental: A,B: Untreated cells, 3 (A) and 8 (B) days after subculture. C,D: Cells grown for 3 (C) and 8 (D) days with 12.8 μM Debromoshermilamine. E,F: Cells grown for 7 days with Isosegoline A (39 μM) and Norsegoline (16.3 μM), respectively.
A,B: Untreated cells 3 (A) and 6 (B) days after subculture. C,D: Cells grown for 3 (C) and 6 (D) days with 50 μM forskolin. E,F: Cells grown for 3 (E) and 6 (F) days with 39 μM Segoline A. G,H: Cells grown for 3 (G) and 6 (H) days with 0.14 μM Eilatin.
Cells were grown for six days in the absence of drugs (A), or in the presence of: 10 μM 4-methylpyrido[2,3,4-kl]acridine (B), 4 μM pyrido[2,3,4-kl]acridine (C), 0.08 μM Eilatin (D), 75 μM forskolin (E).
The inventors chose the neuroblastoma N1E-115 cells because these tumor-derived cells can be induced to express characteristic neuronal properties by a variety of procedures see Spector, "Electrophysiology of clonal nerve cell lines. In: Excitable Cells in Tissue Culture", Nelson et al. eds., Plenum, New York 247-277 (1981) and can serve as a useful experimental system in which to explore the effects of the Eudistoma alkaloids on the biological properties of both cancer cells and neuronal cells.
The N1E-115 cells were exposed to various concentrations of the six (6) natural products shown in FIG. 1, and of the two synthetic pyridoacridines shown in Scheme III of FIG. 2. […] A,B: Untreated cells, 3 (A) and 8 (B) days after subculture. C,D: Cells grown for 3 (C) and (8) days with 12.8 μM Debromoshermilamine. E,F: Cells grown for 7 days with Isosegoline A (39 μM) and Norsegoline (16.3 μM), respectively. FIG. 5 illustrates the appearance of N1E-115 cells 6 days after replating in the absence (A) and in the presence of 10 μM 4-methylpyrido[2,3,4-kl]acridine (B), or 4 μM pyrido[2,3,4-kl]acridine.

[4] = system: normal hamster fibroblast NIL8 cell line; assay: Growth and morphology of normal NIL8 fibroblast cells; format: cell-based; details: single application
[5] = system: type II cAMP-dependent protein kinase; details: literature; cited from earlier work
[6] = system: pyruvate kinase; assay: Pyruvate kinase activity in cultured rat hepatoma FAO cells; format: cell-based; details: for Km: control 0.14, read-out: Km for the substrate phosphoenolpyruvate (PEP)
Experimental: FIG. 11 is a graph showing the effects of the Eudistoma alkaloids on pyruvate kinase activity in cultured rat hepatoma FAO cells. Enzyme activity v/Vmax was assayed as described in Example IV in partially purified extracts from cells incubated for 1 h in the absence ( ) or presence of 100 μM CPT-cAMP (.cndot.) and 26 μM segoline A ( ) as a function of substrate concentrations (phosphoenolpyruvate, PEP).
1. Activity of pyruvate kinase--a key glycolytic enzyme whose activity is inhibited by cAMP-dependent phosphorylation.
FIG. 11 is a graph showing the effects of the Eudistoma alkaloids on pyruvate kinase activity in cultured rat hepatoma FAO cells. Enzyme activity v/Vmax was assayed in partially purified extracts from cells incubated for 1 h in the absence (squares) or presence of 100 μM 8-(4-chlorophenylthio) cyclic AMP (CPT-cAMP)-CPT-cAMP (circles) and 26 μM Segoline A (triangles) as a function of substrate concentrations (phosphoenolpyruvate, PEP).

[7] = 1.4 μM Eilatin, 5 days, single application

Compound: COc1cc2c3c4c(ccnc14)-c1ccccc1N3C1(C)C(=O)NC(=O)C2C1C (centres unmarked) [Segoline B]
- reversal of the effects of transformation ([1]; 13 μM Segoline B, one application): permanently reverse the effects of transformation
- effects on cell shape and actin organization ([1]; 13 μM Segoline B, FIGS. 8C, 9B): became large and flat and showed the typical network of stress fibers
- growth and morphology after drug removal ([1]; 7 days after removal of 13 μM Segoline B): maintained their reduced growth and flattened morphology

Compound: c1ccc2c(c1)nc1c3nc4ccccc4c4ccnc(c5nccc2c51)c43 [Eilatin]
- effect on cell shape of NIL8 cells [2, 7]: more elongated
- effect on growth of NIL8 cells [2, 7]: growth was inhibited
- effect on normal cells ([2]; at concentrations that induce differentiation and reverse transformation of transformed cells): no effect on normal cells
- differentiation in N1E-115 cells ([3]; 0.08 μM Eilatin): produced differentiation in N1E-115 cells
- effect on cell division and morphological differentiation ([3]; 0.14 μM Eilatin): inhibited cell division and induced morphological differentiation
- long-term effect on cell division ([3]; 0.14 μM Eilatin): cell division is completely blocked
- toxicity to transformed cells ([3]; 1.4 μM Eilatin, N1E-115 ("both the transformed cell lines")): toxic to both the transformed cell lines
- range of effective concentrations that inhibited cell proliferation and induced morphological differentiation [3]: 0.05-0.5 μM
- effects on cell appearance [3]: flattened cell bodies as well as numerous long neurites
- potency relative to the other five naturally occurring compounds and the synthetic pyridoacridines ([3]; actions at the cellular level): 100 times
- most effective concentration for the cells tested [3]: 0.05 to 0.5 µM
- effect on NIL8 cells ([4]; 0.08 μM Eilatin): no effects on NIL8 cells; also recorded: did not exert any effect on the normal NIL8 cells
- cytotoxicity to transformed cells versus normal cells [1]: more cytotoxic to transformed cells than to normal cells
- reverse transformation in NIL8-HSV cells ([1]; 0.08 μM Eilatin): reverse transformation in NIL8-HSV cells
- reversal of the effects of transformation ([1]; 0.21 μM Eilatin, one application): permanently reverse the effects of transformation
- effects on cell shape and actin organization ([1]; 0.21 μM Eilatin, FIG. 8D): became large and flat and showed the typical network of stress fibers
- growth and morphology after drug removal ([1]; 7 days after removal of 0.21 μM Eilatin): maintained their reduced growth and flattened morphology

Compound: c1ccc2c(c1)Nc1cccc3nccc-2c13 [pyrido[2,3,4-kl]acridine]
- range of effective concentrations that inhibited cell proliferation and induced morphological differentiation [3]: 2-5 μM
- effects on cell appearance [3]: flattened cell bodies as well as numerous long neurites
- most effective concentration for the cells tested [3]: 2 to 5 µM
- effect on NIL8 cells ([4]; 4 μM pyrido[2,3,4-kl]acridine, 6 days): effects which were similar to those produced by the natural alkaloids

Compound: Nc1ncnc2c1nc(Cl)n2[C@@H]1O[C@@H]2COP(=O)(O)O[C@H]2[C@H]1O [8-chloro-cAMP, reference compound]
- preferential binding to type II cAMP-dependent protein kinase [5]: bind preferentially to type II cAMP-dependent protein kinase
- effects on cell growth and differentiation ([3]; 8-chloro cAMP 250 μM): transient effects

Compound: Nc1ncnc2c1nc(Sc1ccc(Cl)cc1)n2[C@@H]1O[C@@H]2COP(=O)(O)O[C@H]2[C@H]1O [CPT-cAMP, 8-(4-chlorophenylthio) cyclic AMP, reference compound]
- preferential binding to type II cAMP-dependent protein kinase [5]: bind preferentially to type II cAMP-dependent protein kinase
- effects on cell growth and differentiation ([3]; CPT-cAMP 250-500 μM): transient effects
- Km ([6]; 100 μM CPT-cAMP, 1 h): 520 µM

Compound: COC(=O)c1cc(OC)c2nccc3c2c1Nc1ccccc1-3 [Norsegoline]
- range of effective concentrations that inhibited cell proliferation and induced morphological differentiation [3]: 8-40 μM
- effects on cell appearance [3]: relatively small cell bodies and numerous long neurites
- most effective concentration for the cells tested [3]: 8 to 40 µM
- Km ([6]; concentration of alkaloid not given): 400 µM
- inhibition of pyruvate kinase activity ([6]; submaximal substrate concentrations): inhibit pyruvate kinase activity
- rise in the Km for substrate (phosphoenolpyruvate) ([6]; versus control): ca. 3 fold

Compound: COc1cc2c3c4c(ccnc14)-c1ccccc1N3C(C)C1(C)C(=O)NC(=O)C21 (single isomer, unassigned) [Isosegoline A]
- range of effective concentrations that inhibited cell proliferation and induced morphological differentiation [3]: 12-52 μM
- effects on cell appearance [3]: flattened cell bodies as well as numerous long neurites
- most effective concentration for the cells tested [3]: 12 to 52 µM

Compound: Cc1ccc2c3c(ccnc13)-c1ccccc1N2 [4-methylpyrido[2,3,4-kl]acridine]
- range of effective concentrations that inhibited cell proliferation and induced morphological differentiation [3]: 7.5-12.5 μM
- effects on cell appearance [3]: most neurites were short
- most effective concentration for the cells tested [3]: 7.5 to 12.5 µM
- effect on NIL8 cells ([4]; 10 μM 4-methylpyrido[2,3,4-kl]acridine, 6 days): effects which were similar to those produced by the natural alkaloids

Compound: C=C[C@@]1(C)CC(=O)[C@]2(O)[C@@]3(C)[C@@H](O)CCC(C)(C)[C@@H]3[C@H](O)[C@H](OC(C)=O)[C@@]2(C)O1 [forskolin, reference compound]
- effect on NIL8 cells ([2]; 25 μM forskolin, 5 days, single application): the cells reached the high saturation densities typical of untreated cultures
- effect on cell division and morphological differentiation ([3]; 50 μM forskolin): inhibited cell division and induced morphological differentiation
- long-term effect on cell division ([3]; 50 μM forskolin): became confluent like the control cells
- long-term effect on transformed phenotype ([1]; 75 μM forskolin, 6 days (FIG. 8B)): reverted to the transformed phenotype
- reversal of the effects of transformation ([1]; forskolin 50-100 μM, single application, data not shown): transiently reverse the effects of transformation
